# Laboratory results taken from PMC12256496, “An advancement in developmental and reproductive toxicity (DART) risk assessment: evaluation of a bioactivity and exposure-based NAM toolbox” (Frontiers in Toxicology, 2025).
# Read-outs that look alike come from different tables or passages of the source.
# What was measured:
# [1] = test system: human induced pluripotent stem cell (hiPSC); test: devTOX quickPredict (ornithine/cystine ratio, cell viability); assay type: cell-based
# Experimental: devTOX quickPredict is a human induced pluripotent stem cell (hiPSC) -based assay that predicts the concentration at which a compound may elicit developmental toxicity. […] Assays were performed as described in [Palmer et al. (2013)] with modifications. Briefly undifferentiated hiPSCs are exposed to the compound for 48 h, with media and test article replacement every 24 h. Ornithine and […] concentrations were measured from the final 24-h treatment using Ultra-Performance Liquid Chromatography-High Resolution Mass Spectrometry (UPLC-HRMS). Cell viability was assessed after sample collection using the CellTiter-Fluor Cell Viability Assay (Promega). Dose-response analysis for the o/c ratio, cell viability, ornithine response and cystine response were performed with GraphPad Prism (version 9.1 or newer, GraphPad Software). Each data set was fit with a nonlinear model. The standard model used for analysis is a four-parameter log-logistic nonlinear model. However, the Akaike information criterion (GraphPad Prism) was used to determine if an asymmetric (five-parameter) or multiphasic nonlinear model was a better fit for the data than the four-parameter model. The developmental toxicity potential (dTP, o/c ratio) and toxicity potential (TP, cell viability) concentrations were predicted from the respective dose-response curves using the hiPSCs cell developmental toxicity threshold (dTT, 0.85).
# [2] = test system: human developmental and reproductive toxicity; settings: cited from earlier work
# [3] = test system: human induced pluripotent stem cells (hiPSCs); test: ReproTracker (cardiomyocyte, hepatocyte-like and neuronal differentiation); assay type: cell-based
# Text: The ReproTracker assay assesses chemical perturbation of early embryonic development by evaluating key events of cardiomyocyte, hepatocyte-like (HLC) and neuronal cell differentiation using human induced pluripotent stem cells (hiPSCs). The ReproTracker protocol is described in ([Jamalpoor et al., 2022]; [Moreau et al., 2023]) and was followed introducing a few modifications to allow for concentration response analysis. […] Lineage specific differentiation was then investigated by assessment of gene expression patterns of cell-specific biomarkers, induced cytotoxicity (AlamarBlue cell viability assay) and by morphological profiling. Gene biomarkers quantified by multiplex qRT-PCR included BMP4 and MYH6 for cardiomyocytes, FOXA2 and AFP for hepatocyte-like cells, PAX6 and NESTIN for neural rosette lineage. […] Saccharin was used as a negative control substance for all 3 lineages. For dose dependent qRT-PCR analysis quality control filtered Ct values were normalised using an adaptation of the Pfaffl ([Pfaffl, 2001]) method to calculate ΔCt values with respect to biomarker and housekeeping gene amplification efficiencies. […] In addition, Alamar blue read outs were taken from the differentiating cells at day 7 and the end of each differentiation to measure cell viability in a dose dependent way. The AlamarBlue readout was normalised and transformed using a Bayesian hierarchical approach The Bayesian model assumes measurement between rows on the treatment plates are correlated but allows for differences in average sample response between rows. […] The final cell viability PODs were those at time point end (day 14 for cardiomyocytes, day 21 for HCLs and day 13 for neural) and had CDS above or equal to 0.5. Both the gene biomarker PODs and cell viability/cytotoxicity PODs for each tested lineage are considered for BER calculation.
# [4] = test system: developmental or reproductive toxicity in animal or human; settings: cited from earlier work
# [5] = Human in vivo PK data: concentration-dose ratio (CDR) and toxicokinetic variability factor (TKVF); set-up: 95% percentile (Conc-dose-ratio): unit not given here;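 further: Literature-pooled human in vivo PK data, plasma, serum or cord blood concentrations per daily dose, weighted by study population size across non-pregnant, pregnant and fetal groups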
# [6] = cited from earlier work
# [7] = human
# [8] = test system: humans; settings: ref Supplementary Data Sheet 1, cited from earlier work
# [9] = test system: rabbits; set-up: method as in Supplementary Data Sheet 1; settings: ref Supplementary Data Sheet 1, cited from earlier work
# [10] = test system: rats; settings: ref Supplementary Data Sheet 1, cited from earlier work
# [11] = Bioactivity exposure ratio (BER): minimum platform PoD / estimated Cmax
# [12] = ref FSCJ, EFSA, SCF, JMPR as named in the cell; cited from earlier work
# [13] = parental/systemic toxicity, not reproductive effects; ref Supplementary Data Sheet 1; cited from earlier work
# [14] = hepatic intrinsic clearance, CLint (PBK parameter); assay type: in vitro ADME
# [15] = evidence of developmental or reproductive toxicity in animal or human, irrespective of exposure/dose, ref Supplementary Data Sheet 1
# [16] = Fetus population, TKVF95 = p95 / weighted mean concentration-dose ratio
# [17] = Non-Pregnant population (reference)
# [18] = Non-Pregnant population, TKVF95 = p95 / weighted mean concentration-dose ratio
# [19] = Non-Pregnant, combined (oral, IV)
# [20] = Pregnant population, TKVF95 = p95 / weighted mean concentration-dose ratio
# [21] = Foetus, oral, combined (retinyl palmitate, dietary retinoids)
# [22] = Non-Pregnant, oral, combined (retinyl palmitate, dietary retinoids)
# [23] = Pregnant, oral, combined (retinyl palmitate, dietary retinoids)
smiles,measurement,setting,value
"CCCC(CCC)C(=O)O [Valproic acid (VPA), Valproic acid]",BER from devTOX quickPredict,[1]; Figure 8B,< 1
same,Exposure risk (DART risk classification),"[2]; Pharmaceutical, 600 mg/daily, oral, ref Supplementary Data Sheet 1",High Risk
same,Exposure risk (DART risk classification),"[2]; Pharmaceutical, 3,600 mg/daily, oral, ref Supplementary Data Sheet 1",High Risk
same,BER from ReproTracker,[3]; Figure 8B,< 1
same,DART Hazard Call,[4]; [15],Toxic
same,CDR fold difference to non-pregnant,[5]; Fetus population,0.78
same,CDR fold difference to pregnant,[5]; Fetus population,1.13
same,TKVF,[5]; [16],1.52
same,95% percentile (Conc-dose-ratio),"[5]; Foetus, combined (oral, IV)",0.52
same,Fold Difference to non-pregnant,"[5]; Foetus, combined (oral, IV)",0.78
same,Fold Difference to pregnant,"[5]; Foetus, combined (oral, IV)",1.13
same,Mean Conc-dose -ratio,"[5]; Foetus, combined (oral, IV)",0.34 uM/(mg/day]
same,TKVF,"[5]; Foetus, combined (oral, IV)",1.52
same,CDR fold difference to non-pregnant,[5]; [17],1.00
same,TKVF,[5]; [18],1.62
same,95% percentile (Conc-dose-ratio),[5]; [19],0.71
same,Fold Difference to non-pregnant,[5]; [19],1.00
same,Mean Conc-dose -ratio,[5]; [19],0.44 uM/(mg/day]
same,TKVF,[5]; [19],1.62
same,CDR fold difference to non-pregnant,[5]; Pregnant population,0.69
same,CDR fold difference to pregnant,[5]; Pregnant population (reference),1.00
same,TKVF,[5]; [20],1.85
same,95% percentile (Conc-dose-ratio),"[5]; Pregnant, combined (oral, IV)",0.56
same,Fold Difference to non-pregnant,"[5]; Pregnant, combined (oral, IV)",0.69
same,Fold Difference to pregnant,"[5]; Pregnant, combined (oral, IV)",1.00
same,Mean Conc-dose -ratio,"[5]; Pregnant, combined (oral, IV)",0.30 uM/(mg/day]
same,TKVF,"[5]; Pregnant, combined (oral, IV)",1.85
"CCCCOC(=O)c1ccccc1C(=O)OCCCC [Dibutyl phthalate (DBP), Dibutyl phthalate]",response in devTox quickPredict,[1]; at concentrations above the TDI,positive response
same,DART Hazard Call,[4],Toxic
CCOc1cc(CCC(C)=O)ccc1O [Ethylzingerone],Aqueous Solubility,[6]; pH 6.25,7590 µg/mL
same,Exposure risk (DART risk classification),[2],Low Risk
same,DART Hazard Call,[4],Non Toxic
same,Renal Clearance,[7],2.012 L/h
"CN(Cc1cnc2nc(N)nc(N)c2n1)c1ccc(C(=O)N[C@@H](CCC(=O)O)C(=O)O)cc1 [Methotrexate (MTX), Methotrexate]",BER from devTOX quickPredict,"[1]; PoD 0.06 μM, high-risk scenario 10 mg/weekly",~1
same,concentration at which disruption to iPSC metabolism was detected,[1]; devTOX quickPredict,0.06 µM
same,Exposure risk (DART risk classification),"[2]; Pharmaceutical, 10 mg/weekly, oral, ref Supplementary Data Sheet 1",High Risk
same,concentration leading to effects on iPSC differentiation,"[3]; additional testing in ReproTracker, data not shown",above 0.0085 μM
same,DART Hazard Call,[4]; [15],Toxic
same,TKVF,[5]; [18],2.74
same,TKVF,"[5]; Non-Pregnant, combined (oral, intramuscular, subcutaneous)",2.74
same,CDR fold difference to non-pregnant,"[5]; female, human, in vivo",1.11
same,TKVF,"[5]; female, human, in vivo",2.65
same,95% percentile (Conc-dose-ratio),"[5]; female, human, in vivo, sc",0.15
same,Fold Difference to non-pregnant,"[5]; female, human, in vivo, sc",1.11
same,Mean Conc-dose -ratio,"[5]; female, human, in vivo, sc",0.055 uM/(mg/day]
same,TKVF,"[5]; female, human, in vivo, sc",2.65
same,CDR fold difference to non-pregnant,"[5]; human, in vivo",1.00
CCOP(=S)(OCC)Oc1nc(Cl)c(Cl)cc1Cl [Chlorpyrifos],DART Hazard Call,[4],Toxic
same,level of the high exposure group associated with developmental neurotoxicity,"[8]; prenatal exposure, cord blood biomonitoring",The high exposure CPF group (≥4.39 pg/g) was associated with developmental neurotoxicity
same,Mean Conc-dose -ratio,"[5]; Non-Pregnant, oral",0.002 uM/(mg/day]
CC(=O)CC(c1ccccc1)c1c(O)c2ccccc2oc1=O (centres unmarked) [Warfarin],ReproTracker outcome,"[3]; at higher concentrations, not sensitive enough for a protective PoD",flags potential embryotoxicity
same,TKVF,"[5]; female, human, in vivo",1.93
same,TKVF,"[5]; female, human, in vivo, po",1.93
same,TKVF,"[5]; human, in vivo",1.82
same,TKVF,"[5]; human, in vivo, po",1.82
O=C1CCC(N2C(=O)c3ccccc3C2=O)C(=O)N1 (centres unmarked) [Thalidomide],Exposure risk (DART risk classification),"[2]; Pharmaceutical, 50 mg/daily, oral, ref Supplementary Data Sheet 1",High Risk
same,DART Hazard Call,[4]; [15],Toxic
same,mortality at or shortly after birth,[8]; infants,"Thalidomide is a powerful human teratogen, inducing a high frequency of severe and life-threatening birth defects, even after a single dose. Mortality at or shortly after birth has been reported in about 40% of infants."
same,95% percentile (Conc-dose-ratio),"[5]; human, in vivo, po",0.06
same,Mean Conc-dose -ratio,"[5]; human, in vivo, po",0.036 uM/(mg/day]
same,TKVF,"[5]; human, in vivo, po",1.73
CCN(CC)CCNC(=O)c1cc(Cl)c(N)cc1OC [Metoclopramide],DART Hazard Call,[4],Toxic
same,"exposure without adverse developmental effects, multiple of maximum recommended human dose","[9]; oral, pregnant rabbits",~12 times
same,TKVF,[5]; [16],1.97
same,TKVF,"[5]; Foetus, IV",1.97
same,TKVF,[5]; [18],2.85
same,TKVF,"[5]; Non-Pregnant, combined (oral+IV)",2.85
same,TKVF,[5]; [20],2.71
same,TKVF,"[5]; Pregnant, IV",2.71
same,"exposure without adverse developmental effects, multiple of maximum recommended human dose","[10]; oral, pregnant rats",~6 times
CC1=C(/C=C/C(C)=C/C=C/C(C)=C/CO)C(C)(C)CCC1 [Retinol],Exposure risk (DART risk classification),"[2]; Cosmetic, 0.05% in body lotion, dermal, ref Supplementary Data Sheet 1",Low Risk
same,Exposure risk (DART risk classification),"[2]; Dietary, <10,000 IU, oral, ref Supplementary Data Sheet 1",Low Risk
same,DART Hazard Call,[4]; [15],Toxic
same,BER,[11]; low-risk scenario of normal dietary exposure to retinol and its metabolite,< 1
same,exposure above which DART effects are seen in vivo,[8],"above 3,000 μg RE/day"
same,CDR fold difference to non-pregnant,[5]; Fetus population,0.82
same,TKVF,[5]; [16],1.86
same,95% percentile (Conc-dose-ratio),[5]; [21],2.85
same,Fold Difference to non-pregnant,[5]; [21],0.82
same,Fold Difference to pregnant,[5]; [21],0.93
same,Mean Conc-dose -ratio,[5]; [21],1.54 uM/(mg/day]
same,TKVF,[5]; [21],1.86
same,CDR fold difference to non-pregnant,[5]; [17],1.00
same,TKVF,[5]; [18],2.32
same,95% percentile (Conc-dose-ratio),[5]; [22],4.34
same,Fold Difference to non-pregnant,[5]; [22],1.00
same,Mean Conc-dose -ratio,[5]; [22],1.87 uM/(mg/day]
same,TKVF,[5]; [22],2.32
same,CDR fold difference to non-pregnant,[5]; Pregnant population,0.88
same,TKVF,[5]; [20],1.64
same,95% percentile (Conc-dose-ratio),[5]; [23],2.70
same,Fold Difference to non-pregnant,[5]; [23],0.88
same,Fold Difference to pregnant,[5]; [23],1.00
same,Mean Conc-dose -ratio,[5]; [23],1.65 uM/(mg/day]
same,TKVF,[5]; [23],1.64
CC(C)(C)c1ccc(CCOc2ncnc3ccccc23)cc1 [Fenazaquin],Aqueous Solubility,"[6]; Solubility pH 7.01, median, ref [7],[8]",0.19 µg/mL
same,Exposure risk (DART risk classification),"[2]; Dietary, 3 mg/daily, oral, ref Supplementary Data Sheet 1",Low Risk
same,DART Hazard Call,[4]; [15],Non Toxic
same,ADI,[12],ADI set by JMPR (0.05 mg/kg/day)
same,Renal Clearance,[7],0.577 L/h
same,NOAEL on which the ADI is based,[13],No evidence of developmental or reproductive toxicity. ADI is based on the NOAEL from this study of 5 mg/kg/day but this was based on parental/systemic toxicity and not reproductive effects.
same,BER,[11]; low-risk exposure scenario of the compound,< 1
CCCCOC(=O)c1ccccc1C(=O)OCCCC [Dibutyl phthalate],Intrinsic Liver Clearance,[14],1887.4 L/h
same,Renal Clearance,[7],0.2 L/h
CN(CCOc1ccc(CC2SC(=O)NC2=O)cc1)c1ccccn1 (centres unmarked) [Rosiglitazone],"no-effect dose for effects on the placenta, embryo/fetus and offspring",[9]; rabbits,15 mg/kg/day
same,TKVF,"[5]; female, human, in vivo",1.71
same,TKVF,"[5]; female, human, in vivo, po",1.71
same,TKVF,"[5]; human, in vivo",4.34
same,TKVF,"[5]; human, in vivo, po",4.34
same,"no-effect dose for effects on the placenta, embryo/fetus and offspring",[10]; rats,0.2 mg/kg/day
